In ChEMBL document CHEMBL1145719, “Rigidone, a sesquiterpene o-quinone from the gorgonian Pseudopterogorgia rigida” (J Nat Prod, 1997):

Target: T1, Macrophage scavenger receptor types I and II (Homo sapiens, UniProt P21757)
T1 sequence (P21757 whole entry): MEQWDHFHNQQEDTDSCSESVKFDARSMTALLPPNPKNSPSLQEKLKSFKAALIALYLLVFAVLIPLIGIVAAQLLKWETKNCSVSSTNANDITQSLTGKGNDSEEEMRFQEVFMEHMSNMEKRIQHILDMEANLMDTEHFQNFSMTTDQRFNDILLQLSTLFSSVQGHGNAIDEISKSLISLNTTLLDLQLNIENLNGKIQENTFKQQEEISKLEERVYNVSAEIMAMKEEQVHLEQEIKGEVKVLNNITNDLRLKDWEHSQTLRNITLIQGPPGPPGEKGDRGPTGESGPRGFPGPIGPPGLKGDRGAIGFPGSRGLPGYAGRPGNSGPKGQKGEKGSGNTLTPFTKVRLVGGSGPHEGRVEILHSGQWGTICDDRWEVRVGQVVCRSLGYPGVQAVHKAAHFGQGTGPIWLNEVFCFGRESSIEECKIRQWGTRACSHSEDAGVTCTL
Experiment: Inhibition of full-length MSR1 transfected in HEK293 cells by fluorimetry
Assay type: cell-based

Row | SMILES | IC50 [µM]
1 | CC(C)=CCC[C@H](C)c1c(O)c(O)c(C)c2nc3ccccc3nc12 | 71
2 | CC(C)=CCC[C@H](C)C1=C(O)C=C(C)C(=O)C1=O [RIGIDONE] | 5.6
